The results in this text go back to paper PMC11258331 (Scientific Reports, 2024).

Marks after values point to notes of the source that are not given here.

The nature of series [1]: Plasma pharmacokinetics (LC-MS/MS, noncompartmental; GMR by linear mixed-effects model).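 For all read-outs here: participants at one US clinical research site, randomized 1:1:1 to a single study part, with 90% CIs from a mixed-effects model on log-transformed PK parameters.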 The conditions noted are these: for AUC / Cmax / half-life / Tmax: human, plasma, oral; for AUC: AUC(TAU); for half-life: T1/2, arithmetic mean [n] (SD); for Increase of AUC(TAU) / Increase of Cmax: Treatment I (with milvexian) vs Treatment H (aspirin alone).
Experimental: (§2) The study (ClinicalTrials.gov Identifier: NCT03698513) was conducted at 1 clinical research center in the United States. […] Participants underwent screening evaluations to determine eligibility within 35 days of study drug administration, and eligible participants were randomly assigned 1:1:1 to a single part of the study.
(§3) All statistical analyses and calculations were performed using SAS® software (SAS Institute, Inc., Cary, North Carolina; version 9.3). All safety and plasma PK/PD data were summarized using descriptive statistics. Descriptive summaries were presented for continuous variables using number of subjects (N), mean, SD; median, minimum, and maximum. […] CIs were constructed using a linear mixed-effects model with treatment as a fixed effect and measurements within participants as repeated measures fitted to the log-transformed PK parameters.
Series [2] concerns arachidonic acid (AA)-induced platelet aggregation. As to the kind of experiment: AA (1 mM)-induced platelet aggregation, light transmission aggregometry. It counts as in vivo, human. The conditions noted are these: drug alone (Treatment E or H). The procedure:
(§1) PD assessments were performed on Days 1 (≤ 24 h) and 5 (≤ 72 h) of each period (Supplementary Table 8); assessments included aPTT[18], FXIc[18], and bleeding time (assessed according to the PPD® Laboratories [Austin, TX] procedure where a blood pressure cuff, situated above the incision site, provided pressure at 40 mmHg and blood from the incision was wicked with filter paper every 30 s until cessation to record bleeding time). In addition, AA (1 mM), ADP) (20 µM)-, and collagen (5 μg/ml)-induced platelet aggregation assays were performed using light transmission aggregometry (PPD® Laboratories) and performed on Days 1 and 5 (≤ 24 h) for only Period 1.

For series [3], the system named is platelet aggregation induced by adenosine diphosphate (ADP). In words: ADP (20 µM)-induced platelet aggregation, light transmission aggregometry. Type of series: in vivo, human. The following applies: drug alone (Treatment E or H). The procedure:
as §1

Series [4] relates to healthy participants. In words: Adverse events and bleeding-related AEs by treatment, phase I DDI study.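 Note: counts from medical review of adverse event and bleeding-related adverse event reports, collected at selected times across the dosing interval, single US site, randomised 1:1:1 to one study part.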
Experimental: Participants underwent screening evaluations to determine eligibility within 35 days of study drug administration, and eligible participants were randomly assigned 1:1:1 to a single part of the study.
Safety assessments were performed at selected times throughout the dosing interval (Supplementary Table 7). The assessments were based on medical review of AE and bleeding-related AE reports, and the results of vital sign measurements, ECG measurements, physical examinations, and clinical laboratory tests.
Series [5] has as its system platelet aggregation induced by collagen. In words: Collagen (5 μg/ml)-induced platelet aggregation, light transmission aggregometry. Type of series: in vivo, human. The conditions noted are these: drug alone (Treatment E or H). The procedure:
as §1

For series [6] the following is noted: in vivo.
Experimental: as §2, §3
The mark [7] stands for this setting: geometric mean [n] (90% CI), Day 5, Treatment C (placebo + aspirin + clopidogrel), Part 1.
The mark [8] stands for this setting: geometric mean [n] (90% CI), Day 5, Treatment H (placebo + aspirin), Part 3.
The mark [9] stands for this setting: geometric mean (90% CI), Day 1, Treatment A (milvexian + aspirin + clopidogrel), Part 1.
Where [10] appears, read: geometric mean (90% CI), Day 1, Treatment C (placebo + aspirin + clopidogrel), Part 1.
Where [11] appears, read: geometric mean (90% CI), Day 1, Treatment H (placebo + aspirin), Part 3.
The mark [12] stands for this setting: geometric mean (90% CI), Day 1, Treatment I (milvexian + aspirin), Part 3.
Where [13] appears, read: median (range), Day 1, Treatment A (milvexian + aspirin + clopidogrel), Part 1.
The mark [14] stands for this setting: median (range), Day 1, Treatment C (placebo + aspirin + clopidogrel), Part 1.
Setting [15] is: median (range), Day 1, Treatment H (placebo + aspirin), Part 3.
Setting [16] is: median (range), Day 1, Treatment I (milvexian + aspirin), Part 3.
The mark [17] stands for this setting: median [n] (range), Day 5, Treatment C (placebo + aspirin + clopidogrel), Part 1.
Where [18] appears, read: median [n] (range), Day 5, Treatment H (placebo + aspirin), Part 3.

As for `O=C(O)c1ccccc1O` [Salicylic acid, salicylic acid], the AUC in series [1] (geometric mean [n] (90% CI), Day 1, Treatment A (milvexian + aspirin + clopidogrel), Part 1) is 92700 ng·h/mL; in series [1] (geometric mean [n] (90% CI), Day 1, Treatment C (placebo + aspirin + clopidogrel), Part 1) it was 93500 ng·h/mL; in series [1] (geometric mean [n] (90% CI), Day 1, Treatment H (placebo + aspirin), Part 3), 93300 ng·h/mL; in series [1] (geometric mean [n] (90% CI), Day 1, Treatment I (milvexian + aspirin), Part 3), 93600 ng·h/mL; in series [1] (setting [7]) it was 92000 ng·h/mL; in series [1] (setting [8]) it was 92500 ng·h/mL. The Cmax in series [1] (setting [9]) is 17600 ng/mL; in series [1] (setting [10]), 18100 ng/mL; in series [1] (setting [11]), 16500 ng/mL; in series [1] (setting [12]), 16300 ng/mL; in series [1] (setting [7]), 17300 ng/mL; in series [1] (setting [8]) it was 16500 ng/mL. The half-life in series [1] (Day 1, Treatment A (milvexian + aspirin + clopidogrel), Part 1) is 2.21 h; in series [1] (Day 1, Treatment C (placebo + aspirin + clopidogrel), Part 1), 2.25 h; in series [1] (Day 1, Treatment H (placebo + aspirin), Part 3), 2.4 h; in series [1] (Day 1, Treatment I (milvexian + aspirin), Part 3), 2.39 h; in series [1] (Day 5, Treatment C (placebo + aspirin + clopidogrel), Part 1) it was 2.23 h; in series [1] (Day 5, Treatment H (placebo + aspirin), Part 3), 2.39 h. Also, the Tmax in series [1] (setting [13]) came out at 2 h; in series [1] (setting [14]), 2 h; in series [1] (setting [15]), 2.03 h; in series [1] (setting [16]), 2 h; in series [1] (setting [17]), 2.02 h; in series [1] (setting [18]) it was 3 h.
With `CC(=O)Oc1ccccc1C(=O)O` [Aspirin, acetylsalicylic acid, reference compound], the “Increase of AUC(TAU)” value in series [1] (Day 1) is 24%; in series [1] (Day 5) it was 19%. The “Increase of Cmax” value was found to be 40% in series [1] (Day 1) and 33% in series [1] (Day 5). In addition, the Cmax in series [1] (setting [9]) turned out to be 3050 ng/mL; in series [1] (setting [10]), 2970 ng/mL; in series [1] (setting [11]), 2450 ng/mL; in series [1] (setting [12]), 3440 ng/mL; in series [1] (setting [7]), 2890 ng/mL; in series [1] (setting [8]), 2670 ng/mL. In addition, the Tmax stood at 1 h in series [1] (setting [13]); 1 h in series [1] (setting [14]); 0.5 h in series [1] (setting [15]); 0.5 h in series [1] (setting [16]); 0.5 h in series [1] (setting [17]); 0.508 h in series [1] (setting [18]). Further, in series [2], the “Inhibition of AA-induced aggregation compared with baseline” value is on record as ~ 95%. Besides, the “Inhibition of ADP-induced aggregation compared with baseline” value in series [3] is listed as ~ 15%. The Anal fissure hemorrhage in series [4] (Part 3 (Treatments G-I)) is listed as 0 n (%). In series [4] (Part 3 (Treatments G-I)), the Contusion is listed as 0 n (%). Moreover, the Deaths in series [4] (Part 3 (Treatments G-I)) was 0 n (%). Moreover, the “Discontinuations due to AEs” value in series [4] (Part 3 (Treatments G-I)) is given as 0 n (%). Moreover, the Epistaxis in series [4] (Part 3 (Treatments G-I)) is listed as 1 (2.6)^‡‡ n (%). The Gingival bleeding in series [4] (Part 3 (Treatments G-I)) was 0 n (%). In addition, the “Serious AEs” value in series [4] (Part 3 (Treatments G-I)) is listed as 0 n (%). Besides, in series [4] (Part 3 (Treatments G-I)), the “Total participants with an AE” value is listed as 9 (23.7) n (%). Besides, the “Total participants with bleeding event(s)” value in series [4] (Part 3 (Treatments G-I)) is reported as 1 (2.6) n (%). In addition, the “Vessel puncture site bruise” value in series [4] (Part 3 (Treatments G-I)) is listed as 0 n (%). Also, the “Events of epistaxis reported by a participant” value in series [4] (bleeding AE) was found to be 1 events. For the same compound, the “Percentage of participants reporting AEs” value in series [4] (by treatment, all parts) is reported as 23.7%. Besides, the “Inhibition of collagen-induced aggregation compared with baseline” value in series [5] is listed as ~ 25%.
For the compound `O=C(O)[C@H](c1ccccc1Cl)N1CCc2sccc2C1` [Clopidogrel acid], the “Mean T1/2” value in series [6] (human) was “approximately 8 h”. The “Reduction of Cmax” value in series [6] was 14%.

The term half-life denotes the time needed for the level to fall by half in the phase considered.
